From patent US20230105412A1, “5-HT3 RECEPTOR MODULATOR, THE CRYSTALLINE FORM, METHODS OF MAKING, AND USE THEREOF” (CHENGDU SCIMOUNT PHARMATECH CO., LTD., priority 2021, published 2023)
≈ marks a conversion by molar mass, not a printed value.

Legend:
Assay type in all cases: physicochemical
[1] = Gravimetric water solubility by TGA; conditions: deionized water, ambient, TGA gravimetric or visual dissolution, XRPD Form A
Description: The water solubility of select salts afforded from the 70 mg scale experiments was estimated using the following gravimetric method. Approximately 20 mg of each confirmed salt was weighed into a 2 mL HPLC vial. 50 μL increments of deionized H2O were then added to each vial along with a small magnetic stir bar. If dissolution was observed, the samples were stored in a hood overnight and examined the next day for precipitation. Samples affording slurries after a maximum of 250 μl of water were left stirring at ambient conditions overnight to equilibrate. These samples were then centrifuge filtered, and 50 μL of each saturated solution was aliquoted into tared TGA pans. On the TGA, each sample was heated and held at elevated temperature until all solvent was dried off. Resulting dry weight and aliquoted volume for each saturated solution was then utilized in estimating solubility. Refer to Table 3 for results of this study.

[2] = Aqueous solubility study (water slurry, HPLC, pH, XRPD); conditions: for pH: pH of supernatant of overnight water slurry; for XRPD (Form) after water slurry: solids after overnight room temperature water slurry, initial Form A
Description: Approximately 20 mg of the free form, mesylate, hydrochloride, succinate, glutamate, naphthoate and phosphate salts of formula (I) were weighed to individual HPLC vials equipped with a magnetic stir bar and 0.05 mL increments of deionized water added. If dissolution was observed, the approximate solubility was recorded. If no dissolution had occurred, the slurries were stirred overnight at ambient temperature. The supernatant from each slurry was obtained using centrifuge filters. Each solution was tested for pH and by HPLG versus a calibration curve (FIG. 6) to determine the equilibrium solubility. Solids obtained from the filtration were analyzed by XRPD to confirm the crystalline form (Table 4).

[3] = Stability at elevated temperature (60° C., 7 days); conditions: for XRPD (Form) after elevated temperature: 60° C., 7 days, uncovered, ambient pressure, initial Form A
Description: Approximately 10 mg of the free form, mesylate, hydrochloride, succinate, glutamate, naphthoate and phosphate salts of formula (I) were weighed to individual 4 mL vials and stored uncovered in an oven at 60° C. and ambient pressure. After seven days of exposure, the solids were analyzed by XRPD to check for form conversion and ^1H-NMR for signs of degradation (Table 5).

[4] = Organic slurry experiments (7 days, THF or IPA); conditions: initial Form A
Description: Approximately 30 mg of the free form, mesylate, hydrochloride, succinate, glutamate, naphthoate and phosphate salts of formula (I) were weighed to individual HPLG vials equipped with a magnetic stir bar. Either THF or IPA was added to obtain a free flowing slurry. After seven days of ambient equilibration, solid from each slurry was obtained using centrifuge filtration with 0.45 μm nylon centrifuge filters, and dried at ambient temperature and ˜30 in Hg. After drying overnight, each was analyzed by XRPD to check for form conversion and ^1H-NMR for signs of degradation (Table 6).

[5] = Gravimetric moisture sorption analysis; conditions: for water adsorbed / hygroscopicity / behaviour at high relative humidity: Form A; for hygroscopicity: gravimetric moisture sorption; for XRPD of dried material following moisture sorption program: initial Form A; for behaviour at high relative humidity: above 80% RH (80% RH to 90% RH)
Description: The stability of each salt was assessed via room temperature slurries in organic solvent and water, storage at elevated temperature (60° C.), and exposure to elevated relative humidity by gravimetric moisture sorption. From the water slurries, the solubility of each salt was determined at ambient conditions.

[6] = Relative humidity study (95% RH); conditions: five hours, Form A lot HAL-G-29(2)
Description: Approximately 30 mg of Form A mono-glutamate salt [lot HAL-G-29(2)] was stored uncovered in a small glass container in a desiccator containing an aqueous saturated solution of Na2HPO4.12H2O to achieve a relative humidity of 95%. After five hours of exposure the solid had deliquesced and the sample was exposed to the lab environment (20% RH) overnight. The resulting dried solid was characterized by XRPD, DSC, and TGA.
As presented above, Form B was obtained following moisture sorption analysis of Form A and subsequent drying. In an effort to generate additional Form B for further characterization, a brief humidity study was performed as described below: approximately 30 mg of Form A mono-glutamate salt [lot HAL-G-29(2)] was stored uncovered in a small glass container in a desiccator containing an aqueous saturated solution of Na2HPO4.12H2O to achieve a relative humidity of 95%.

Structure (SMILES) | Estimated Water Solubility [1] [µg/mL] | XRPD (Form) after elevated temperature [3] | XRPD (Form) 7 Days ([4]; ambient slurry in IPA) | hygroscopicity [5] | XRPD of dried material following moisture sorption program [5] | further results
O=C(O)c1ccc2ccccc2c1O [1-hydroxy-2-napthoic acid] | 4700 | Form B | Form B | moderately hygroscopic | Form B | Aqueous Solubility ([2]; deionized water, ambient temperature, overnight slurry, HPLC or visual dissolution, initial XRPD Form A): 2300 µg/mL; pH [2]: 6.2; XRPD (Form) after water slurry [2]: Form C; water adsorbed ([5]; 60% RH): 1.5 wt %; water adsorbed ([5]; 90% RH): 2.5 wt %; water content during desorption ([5]; curve stabilized from 75%-55% RH): approximately 2.0 wt %
O=C1CCC(C(=O)O)N1 (centres unmarked) [2-pyrrolidine-5-carboxylic acid] | – | no signs of conversion | no signs of conversion | relatively non-hygroscopic | Form B | 1H-NMR, signs of degradation [3]: No; behaviour at high relative humidity ([5]; listed as glutamate): deliquesced; behaviour at high relative humidity ([5]; listed as mono-glutamate salt): deliquescence; behaviour at 95% RH [6]: deliquesced
O=C1c2cccc3[nH]nc(c23)CCN1[C@@H]1CN2CCC1CC2 [Free Form, (S)-7-(quinuclidin-3-yl)-8,9-dihydro-2H-azepino[5,4,3-cd]indazol-6(7H)-one] | – | no signs of form conversion | – | non hygroscopic | form conversion had not occurred | solubility ([1]; thermodynamic from solid, read-out: Estimated Water Solubility): < 2500 µg/mL; pH [2]: 9.3; XRPD (Form) after water slurry [2]: no change in crystalline form; solubility ([2]; thermodynamic from solid, deionized water, ambient temperature, overnight slurry, HPLC or visual dissolution, initial XRPD Form A): 2000 µg/mL (≈ 6.75 mM); 1H-NMR, signs of degradation [3]: No; water adsorbed ([5]; throughout the humidity program): less than 0.2 wt %
Cl [Hydrochloric acid] | – | no signs of conversion | no signs of conversion | – | – | –
O=C(O)C[C@H](O)C(=O)O [L-Malic acid] | ≥80000 | – | – | – | – | Estimated Water Solubility ([1]; listed as malate salt): 80000 µg/mL
CS(=O)(=O)O [Methanesulfonic acid] | – | no signs of conversion | – | moderately hygroscopic | no form conversion had occurred | XRPD (Form) 7 Days ([4]; ambient slurry in THF): no signs of conversion; water adsorbed ([5]; 80% RH): 4.6 wt %; water adsorbed ([5]; 90% RH): 8.8 wt %
O=P(O)(O)O [Phosphoric acid] | – | no signs of conversion | no signs of conversion | – | – | –
O=C(O)CCC(=O)O [Succinic acid] | – | no signs of conversion | no signs of conversion | – | – | –
Cc1ccc(S(=O)(=O)O)cc1 [p-toluenesulfonic acid] | 17400 | – | – | – | – | Estimated Water Solubility ([1]; listed as tosylate salt): 20300 µg/mL
